Measurements as given in patent publication US10604535B2, “Compounds, compositions and methods” (Denali Therapeutics Inc., priority 2016, dated 2020).
pIC50: −log10 of the molar value.

Tests used:
[1] = male, Sprague-Dawley Crl:CD(SD), in vivo, iv
Method: (§1) The protein binding in plasma was determined using a Rapid Equilibrium Dialysis Device (Thermo Scientific RED Device) or 96-well dialyzer apparatus (HTDialysis LLC). […] If required, plasma samples were pre-incubated (2 hours at 37° C.) with diisopropyl fluorophosphate (DFP) at the final concentration of 100 μM to prevent compound degradation due to amide hydrolysis. Appropriate volumes of spiked samples along with blank phosphate buffer were added to either device and incubated at 37° C. for a total of 5 hours with agitation at 500 rpm. Following incubation, an equal aliquot of dialysed matrix (plasma or buffer) is added to an equal volume of the opposite blank matrix such that the volume of buffer to plasma are equal. Mixed matrix samples were extracted by protein precipitation using acetonitrile containing the appropriate IS. Samples were then centrifuged for 10 min at 2800 rpm. Supernatants were collected and diluted and then injected on to an HPLC-MS/MS or UPLC-MS/MS system. Samples were analyzed by monitoring the appropriate parent/daughter ion transitions for the test and control compounds. The peak area ratios were used to measure test item concentrations. The fraction unbound (Afu) was determined as the ratio of the peak area ratio in buffer divided by the peak area ratio in plasma.
(§2) The PK properties of test articles were determined in male Sprague-Dawley Crl:CD(SD) rats, male Beagle dogs and male cynomolgus monkeys. Studies were conducted to the highest standards of animal welfare in accordance with national legislation and under approval of the internal animal care and use committees.
(§3) Compounds were administered by IV bolus to animals following an overnight fast. […] The formulations were administered at dose volumes ranging from 0.5-2 mL/kg. The IV dose ranged from 0.5-1 mg/kg.
(§4) Following dose administration, 8-9 serial blood samples were collected over 24 hours. Samples were mixed with anticoagulant and placed on wet ice prior to processing. Plasma was harvested following centrifugation, extracted using protein precipitation with acetonitrile containing IS. The processed supernatant was analyzed using UPLC or LC-MS/MS using specific parent/daughter ion pairs for the test article and IS. Plasma concentrations were determined using a calibration curve prepared using known concentrations of analyte. Pharmacokinetic parameters utilizing measured concentrations were calculated using Phoenix WinNonlin. The unbound plasma clearance was calculated as the ratio of the total body clearance divided by the fraction unbound in plasma.

GST-hRIPK1 (8-327) [2] = molecular target: T1, GST-hRIPK1 (8-327) (Homo sapiens (Human), UniProt Q13546); experiment: Fluorescent Polarization Binding (FP Binding) assay
[3] = male, cynomolgus monkey, in vivo, iv
Method: as §1, §2, §3, §4

[4] = system: human cryopreserved hepatocytes; experiment: Metabolic stability (hepatocytes); details: for Human hepatocyte CLhep Avg: human cryopreserved hepatocytes
Method: The metabolic stability of compounds was evaluated in human cryopreserved hepatocytes (BioreclamationlVT, NY, USA) in duplicate. Test articles (or controls) were added to a 24-well incubation plate (Becton Dickinson Labware, USA) containing 0.5×10^6 hepatocytes/mL in suspension. The plate was held at 37° C. and agitated with constant orbital shaking (orbital speed at 350 rpm). At each time point (0, 5, 10, 15, 20, 30, 45, 60, 90, 120, 150 and 180 min) a Tecan Evo robot aspirated 50 μL of the incubation mixture and 100 μL of acetonitrile containing internal standard to quench the reaction. […] Samples were centrifuged (3000 rpm for 10 minutes) and the plate sealed prior to injection onto an LC-MS/MS system.
The appropriate parent/daughter ions were monitored for the test article and IS with the LC-MS/MS system. The intrinsic clearance (Clint; expressed μL/min/million cells) was determined from the first order elimination constant (k, min^−1) of test article decay and the volume of the incubation. […] The intrinsic organ CL was then converted to the hepatic clearance (CLhep) using the well-stirred model as shown below, where Qh is human hepatic blood flow.
Hepatic clearance is expressed as mL/min/kg. The hepatic clearance relates to the flow of blood through the liver that is completely cleared of the compound.

P-gp (MDR1) = experiment: MDCKII-MDR1 permeability, efflux ratio; assay type: in vitro ADME; details: dog, MDCK-MDR1, pH 7.4, MDCKII-MDR1, 3 μM, read-out: ER MDR1
Method: The blood brain barrier (BBB) separates circulating blood from the extracellular fluid of the central nervous system (CNS). The passive membrane permeability (Papp) and the P-gp (P-glycoprotein) substrate efflux potential were determined using the MDCKII-MDR1 cell line as an in vitro model of the effective permeability of a compound through the BBB. A bidirectional assay (Apical to Basolateral (A→B) and Basolateral to Apical (B→A)), in the absence and in the presence of GF120918 (a P-gp inhibitor) was conducted using pre-plated MDCKII-MDR1 cells (Corning HTS Transwell-96) obtained from SOLVO Biotechnology. The assay was run at 3 μM for 90 min (minutes) in triplicate using a HBSS+12.5 mM HEPES pH 7.4 transport buffer. Following incubation of samples from donor and receiver, wells were removed and measured by LC-MS/MS. Samples were extracted by protein precipitation with acetonitrile containing an appropriate internal standard (IS) having a known mass and molecular weight. The precipitate was centrifuged for 10 min at 3000 rpm (revolutions per minute). The supernatants were then collected, diluted if necessary, and injected on to the LC-MS/MS system. […] Papp (apparent permeability expressed in nm/sec [nanometer/second]) values were calculated according to the following equation: […]
Where dQ/dt is the permeability rate, C0 is the initial concentration in the donor solution (expressed as IS ratio), A and B are the surface areas of the filter (the surface area of the cell monolayer).
Monolayer efflux ratios (ER) were derived using the following equation: […]

[5] = male, Beagle, in vivo, iv
Method: as §1
The PK properties of test articles were determined in male Sprague-Dawley Crl:CD(SD) rats, male Beagle dogs and male cynomolgus monkeys. […]
Following dose administration, 8-9 serial blood samples were collected over 24 hours. […] The processed supernatant was analyzed using UPLC or LC-MS/MS using specific parent/daughter ion pairs for the test article and IS. Plasma concentrations were determined using a calibration curve prepared using known concentrations of analyte. Pharmacokinetic parameters utilizing measured concentrations were calculated using Phoenix WinNonlin. The unbound plasma clearance was calculated as the ratio of the total body clearance divided by the fraction unbound in plasma.

GST-hRIPK1 (8-327) [6] = molecular target: T1, GST-hRIPK1 (8-327); experiment: ADP-Glo kinase assay; assay type: biochemical
Method: GST-hRIPK1 (8-327) enzyme was generated by Proteros GmbH by Baculovirus expression system.
Test compounds were diluted in DMSO and 0.1 μL of solution was dispensed to each well of a 384-well white solid microplate. The assay buffer was 50 mM HEPES pH 7.5, 50 mM NaCl, 30 mM MgCl2. The buffer was supplemented with 0.02% CHAPS, 0.01% of Pluronic F127, 0.1 mg/mL BSA and 1 mM DTT. MnCl2, 5 mM, was included in the assay buffer on the day of the experiment. The enzymatic reaction comprised 1.5 μg/mL GST-hRIPK1 (8-327) and 50 μM ATP for receptor interacting protein kinase 1 and 15 μM ATP. 5 μL of enzyme and 5 μL of ATP were added to the plate at twice the final assay concentration and incubated at room temperature for 3 hours. Following this reaction, 10 μL of ADP-Glo reagent (Promega) was added to each well and incubated for 40 min at room temperature. This stops the kinase reaction and depletes any remaining ATP. 20 μL of ADP-Glo detection reagent was then added to each well and incubated at room temperature for at least 15 minutes. The detection reagent converts ADP to ATP and introduces luciferase and luciferin to detect ATP. The luminescence is then measured with the Envision (PerkinElmer) plate reader. Test compound inhibition was expressed as percent inhibition of internal assay controls. For concentration response curves, normalized data is fit and IC50 determined using XL-fit (IDBS) for Excel. The IC50 were averaged to determine a mean value, for a minimum of two independent experiments.
Test compound inhibition was expressed as percent inhibition of internal assay controls. For concentration response curves, normalized data is fit and IC50 determined using XL-fit (IDBS) for Excel. The IC50 were averaged to determine a mean value, for a minimum of two independent experiments.

T1 sequence (Q13546 8-327): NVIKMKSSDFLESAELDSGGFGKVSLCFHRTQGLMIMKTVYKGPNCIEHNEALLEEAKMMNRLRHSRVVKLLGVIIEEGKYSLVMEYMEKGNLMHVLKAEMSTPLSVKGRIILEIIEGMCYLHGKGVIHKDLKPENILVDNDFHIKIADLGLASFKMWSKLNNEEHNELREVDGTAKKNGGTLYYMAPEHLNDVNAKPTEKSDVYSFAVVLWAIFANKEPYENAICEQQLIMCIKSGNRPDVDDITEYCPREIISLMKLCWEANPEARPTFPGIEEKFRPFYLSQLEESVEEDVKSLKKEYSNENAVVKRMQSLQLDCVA

SMILES	Rat unbound CL [1] [mL/min/kg]	pIC50 (GST-hRIPK1 (8-327) [2])	Cyno unbound CL [3] [mL/min/kg]	Human hepatocyte CLhep Avg [4] [mL/min/kg]	efflux ratio at 90 min, 3 μM (P-gp (MDR1))	Dog unbound CL [5] [mL/min/kg]	clearance as % of liver blood flow ([4]; corresponding to human CLhep)	pIC50 (GST-hRIPK1 (8-327) [6])
C[C@H]1Oc2cccnc2N(C)C(=O)[C@H]1NC(=O)c1nnc(Cc2ccccc2)[nH]1 [Example 94, 5-benzyl-N-((2R,3S)-2,5-dimethyl-4-oxo-2,3,4,5-tetrahydropyrido[3,2-b][1,4]oxazepin-3-yl)-4H-1,2,4-triazole-3-carboxamide]	44	6.00 to 10.00	40	4.9				
CN1C(=O)[C@@H](NC(=O)c2nnc(Cc3ccccc3)o2)COc2cccnc21 [Example 146, (S)-5-benzyl-N-(5-methyl-4-oxo-2,3,4,5-tetrahydropyrido[3,2-b][1,4]oxazepin-3-yl)-1,3,4-oxadiazole-2-carboxamide]	61	6.00 to 10.00	39	4.2				
C[C@H]1Oc2cccnc2N(C)C(=O)[C@H]1NC(=O)c1nnc(Cc2ccccc2)o1 [Example 134, 5-Benzyl-N-((2R,3S)-2,5-dimethyl-4-oxo-2,3,4,5-tetrahydropyrido[3,2-b][1,4]oxazepin-3-yl)-1,3,4-oxadiazole-2-carboxamide]	100	6.00 to 10.00	140	9.0				
C[C@H]1Oc2cccnc2N(C)C(=O)[C@H]1NC(=O)c1nn(Cc2ccccc2)cc1F [Example 92, 1-benzyl-N-((2R,3S)-2,5-dimethyl-4-oxo-2,3,4,5-tetrahydropyrido[3,2-b][1,4]oxazepin-3-yl)-4-fluoro-1H-pyrazole-3-carboxamide]	420	6.00 to 10.00						
O=C(N[C@@H]1C(=O)Nc2c(F)cc(F)cc2[C@@H]2C[C@H]12)c1nnc(Cc2ccccc2)[nH]1 [Example 83A, 5-benzyl-N-((1aS,2S,8bR)-5,7-difluoro-3-oxo-1,1a,2,3,4,8b-hexahydrobenzo[b]cyclopropa[d]azepin-2-yl)-4H-1,2,4-triazole-3-carboxamide]			82	1.0				
CN1C(=O)[C@@H](NC(=O)c2nnc(Cc3ccccc3)o2)[C@H]2C[C@H]2c2nccnc21 [Example 177A, 5-benzyl-N-((7S,7aS,8aR)-5-methyl-6-oxo-5,6,7,7a,8,8a-hexahydrocyclopropa[d]pyrazino[2,3-b]azepin-7-yl)-1,3,4-oxadiazole-2-carboxamide]	55	6.00 to 10.00	58	4.2	1.4			
CN1C(=O)[C@@H](NC(=O)c2nnc(Cc3ccccc3)[nH]2)COc2cccnc21 [Example 42, (S)-5-benzyl-N-(5-methyl-4-oxo-2,3,4,5-tetrahydropyrido[3,2-b][1,4]oxazepin-3-yl)-4H-1,2,4-triazole-3-carboxamide]	22		42	0.8		64	less than 4%	
CN1C(=O)[C@@H](NC(=O)c2nnc(Cc3ccccc3)[nH]2)[C@H]2C[C@H]2c2nccnc21 [Example 119B, 5-benzyl-N-((7S,7aS,8aR)-5-methyl-6-oxo-5,6,7,7a,8,8a-hexahydrocyclopropa[d]pyrazino[2,3-b]azepin-7-yl)-4H-1,2,4-triazole-3-carboxamide]	20	6.00 to 10.00	26	0	18			
CN1C(=O)[C@@H](NC(=O)c2nnc(Cc3ccccc3)[nH]2)[C@H]2C[C@H]2c2cccnc21 [Example 75A, 5-benzyl-N-((1aS,2S,8bR)-4-methyl-3-oxo-1,1a,2,3,4,8b-hexahydrocyclopropa[d]pyrido[2,3-b]azepin-2-yl)-4H-1,2,4-triazole-3-carboxamide]	91		93	9.1				
CCN1C(=O)[C@@H](NC(=O)c2cc(Cc3ccccc3)on2)COc2ccccc21 [Example 19, (S)-5-benzyl-N-(5-ethyl-4-oxo-2,3,4,5-tetrahydrobenzo[b][1,4]oxazepin-3-yl)isoxazole-3-carboxamide]								5.00 to 6.00
CN1C(=O)[C@@H](NC(=O)c2nnc(Cc3ccccc3)[nH]2)[C@H]2C[C@H]2c2ccccc21 [Example 46A, 5-benzyl-N-((2S)-4-methyl-3-oxo-1,1a,2,3,4,8b-hexahydrobenzo[b]cyclopropa[d]azepin-2-yl)-4H-1,2,4-triazole-3-carboxamide]		6.00 to 10.00		16	16			
CN1C(=O)[C@@H](NC(=O)c2nnc(C3(c4ccccc4)CC3)o2)COc2cccnc21 [Example 66, (S)—N-(5-methyl-4-oxo-2,3,4,5-tetrahydropyrido[3,2-b][1,4]oxazepin-3-yl)-5-(1-phenylcyclopropyl)-1,3,4-oxadiazole-2-carboxamide]				6.3		36		
CN1C(=O)[C@@H](NC(=O)c2cnn3c2[C@@H](c2ccccc2)CC3)COc2ccccc21 [Example 17, (R)—N—((S)-5-methyl-4-oxo-2,3,4,5-tetrahydrobenzo[b][1,4]oxazepin-3-yl)-4-phenyl-5,6-dihydro-4H-pyrrolo[1,2-b]pyrazole-3-carboxamide]								< 5.00
CN1C(=O)[C@@H](NC(=O)c2ccc(C#N)n2C)COc2ccccc21 [Example 24, (S)-5-cyano-1-methyl-N-(5-methyl-4-oxo-2,3,4,5-tetrahydrobenzo[b][1,4]oxazepin-3-yl)-1H-pyrrole-2-carboxamide]								< 5.00
C[C@H]1Oc2cccnc2N(C)C(=O)[C@H]1NC(=O)c1ncn(Cc2cccc(C#N)c2)n1 [Example 172, 1-(3-cyanobenzyl)-N-((2R,3S)-2,5-dimethyl-4-oxo-2,3,4,5-tetrahydropyrido[3,2-b][1,4]oxazepin-3-yl)-1H-1,2,4-triazole-3-carboxamide]	65	6.00 to 10.00		5.3				
[2H]C([2H])([2H])N1C(=O)[C@@H](NC(=O)c2nn(Cc3ccccc3)cc2F)[C@H]2C[C@H]2c2cc(S(C)(=O)=O)ccc21 [Example 183B, 1-benzyl-4-fluoro-N-((1aS,2S,8bR)-4-trideuteriomethyl-7-(methylsulfonyl)-3-oxo-1,1a,2,3,4,8b-hexahydrobenzo[b]cyclopropa[d]azepin-2-yl)-1H-pyrazole-3-carboxamide]		6.00 to 10.00		5.3	36			
